Assay [1] deals with human lung cancer strain NCI-H441. The format is cell-based. In short, it runs like this:
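Proliferation was scored by […] measured after the reagent was added to cultures kept at 37°C in 5% carbon dioxide.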

The target in assay [2] is HRAS wild-type protein (Homo sapiens, UniProt P01112). Nature of the assay: Binding to HRAS by surface plasmon resonance (SPR), KD and KD ratio to KRAS. As to conditions: ratio of KD for HRAS wild-type protein to KD for KRAS. A digest of the protocol: (§1)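 SPR, 30°C: Avi-biotin RAS·GDP captured via Biotin CAPture (~100–300 RU); running buffer HBS pH 7.4, 1 mM DTT, 10 mM MgCl2, 0.01% Tween 20, 10 µM GDP, 4% DMSO. Single-cycle kinetics, 100 µL/min, 75 s injections; 1:1 model → KD.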
Sequence of HRAS wild-type protein (P01112 whole entry): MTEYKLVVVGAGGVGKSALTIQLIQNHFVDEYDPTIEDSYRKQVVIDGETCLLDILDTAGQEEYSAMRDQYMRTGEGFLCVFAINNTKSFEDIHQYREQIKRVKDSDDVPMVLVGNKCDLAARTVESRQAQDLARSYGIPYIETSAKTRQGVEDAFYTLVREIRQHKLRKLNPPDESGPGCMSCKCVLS

The target in assay [3] is GDP-bound NRAS wild-type protein (Homo sapiens, UniProt P01111). Nature of the assay: Binding to NRAS by surface plasmon resonance (SPR), KD and KD ratio to KRAS. To be noted: ratio of KD for GDP-bound NRAS wild-type protein to KD for KRAS. In short, it runs like this: as §1
Sequence of GDP-bound NRAS wild-type protein (P01111 whole entry): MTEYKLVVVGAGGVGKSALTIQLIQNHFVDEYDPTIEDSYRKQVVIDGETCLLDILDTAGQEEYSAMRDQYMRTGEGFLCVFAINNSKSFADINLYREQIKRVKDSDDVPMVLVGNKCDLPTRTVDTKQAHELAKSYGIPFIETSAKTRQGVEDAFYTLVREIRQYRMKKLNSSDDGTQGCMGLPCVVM
In general terms: Surface plasmon resonance follows binding to a sensor surface in real time, without labels.

The term IC50 denotes the midpoint of a concentration-inhibition curve. A higher IC50 goes with weaker potency in that assay. `CCO[C@@H]1C[C@H]2C(=O)NC3(CCC3)C(=O)N(C)[C@@H](C3CCCC3)C(=O)N(C)[C@H](C(=O)N(C)C)CC(=O)N(C)[C@@H](Cc3ccc(C)cc3)C(=O)N[C@@H]([C@@H](C)CC)C(=O)N(C)CC(=O)N(C)[C@H]3CCCCCN(C3=O)[C@@H](Cc3ccc(C(F)(F)F)cc3)C(=O)N(C)CC(=O)N[C@@H](CCc3cc(F)c(C(F)(F)F)c(F)c3)C(=O)N2C1` [PP0943] showed an IC50 in assay [1] of 154 nM. Further, in assay [2], the “HRAS /KRAS” value is “B (a compound having 3 or more and less than 10 is denoted as B)”. For the same compound, the “NRAS /KRAS” value in assay [3] was “B (a compound having 3 or more and less than 10 is denoted as B)”.
In the case of `CCO[C@@H]1C[C@H]2C(=O)NC3(CCC3)C(=O)N(C)[C@@H](C3CCCC3)C(=O)N(CC)[C@H](C(=O)N3CCOCC3)CC(=O)N(C)[C@@H](CC)C(=O)N[C@@H]([C@@H](C)CC)C(=O)N(C)CC(=O)N(C)[C@H]3CCCCCN(C3=O)[C@@H](Cc3ccc(C(F)(F)F)cc3)C(=O)N(C)CC(=O)N[C@@H](CCc3cc(F)c(C(F)(F)F)c(F)c3)C(=O)N2C1` [PP0944], the IC50 in assay [1] amounted to 344 nM. Moreover, in assay [2], the “HRAS /KRAS” value was “A (a compound having 10 or more and less than 20 is denoted as A)”. Also, in assay [3], the “NRAS /KRAS” value is “A (a compound having 10 or more and less than 20 is denoted as A)”.
For the compound `CCO[C@@H]1C[C@H]2C(=O)NC3(CCC3)C(=O)N(C)[C@@H](C3CCCC3)C(=O)N(CC)[C@H](C(=O)N3CCOCC3)CC(=O)N(C)[C@@H](CO)C(=O)N[C@@H]([C@@H](C)CC)C(=O)N(C)CC(=O)N(C)[C@H]3CCCCCN(C3=O)[C@@H](Cc3ccc(C(F)(F)F)cc3)C(=O)N(C)CC(=O)N[C@@H](CCc3cc(F)c(C(F)(F)F)c(F)c3)C(=O)N2C1` [PP0945], half-maximal inhibition in assay [1] (IC50) was put at 987 nM. In addition, the “HRAS /KRAS” value in assay [2] was “A (a compound having 10 or more and less than 20 is denoted as A)”. Also, the “NRAS /KRAS” value in assay [3] is “B (a compound having 3 or more and less than 10 is denoted as B)”.
`CCO[C@@H]1C[C@H]2C(=O)NC3(CCC3)C(=O)N(C)[C@@H](C3CCCC3)C(=O)N(CC)[C@H](C(=O)N3CCOCC3)CC(=O)N(C)[C@@H](COC)C(=O)N[C@@H]([C@@H](C)CC)C(=O)N(C)CC(=O)N(C)[C@H]3CCCCCN(C3=O)[C@@H](Cc3ccc(C(F)(F)F)cc3)C(=O)N(C)CC(=O)N[C@@H](CCc3cc(F)c(C(F)(F)F)c(F)c3)C(=O)N2C1` [PP0946] yielded an IC50 in assay [1] of 378 nM. Further, the “HRAS /KRAS” value in assay [2] is “B (a compound having 3 or more and less than 10 is denoted as B)”. In addition, the “NRAS /KRAS” value in assay [3] is “A (a compound having 10 or more and less than 20 is denoted as A)”.
Turning to `CCO[C@@H]1C[C@H]2C(=O)NC3(CCC3)C(=O)N(C)[C@@H](C3CCCC3)C(=O)N(CC)[C@H](C(=O)N3CCOCC3)CC(=O)N(C)[C@@H](CCOC)C(=O)N[C@@H]([C@@H](C)CC)C(=O)N(C)CC(=O)N(C)[C@H]3CCCCCN(C3=O)[C@@H](Cc3ccc(C(F)(F)F)cc3)C(=O)N(C)CC(=O)N[C@@H](CCc3cc(F)c(C(F)(F)F)c(F)c3)C(=O)N2C1` [PP0947], half-maximal inhibition in assay [1] (IC50) required 597 nM. Moreover, the “HRAS /KRAS” value in assay [2] was “A (a compound having 10 or more and less than 20 is denoted as A)”. Also, the “NRAS /KRAS” value in assay [3] was “A (a compound having 10 or more and less than 20 is denoted as A)”.
`CCO[C@@H]1C[C@H]2C(=O)NC3(CCC3)C(=O)N(C)[C@@H](C3CCCC3)C(=O)N(CC)[C@H](C(=O)N3CCOCC3)CC(=O)N(C)[C@@H](Cc3ccccc3)C(=O)N[C@@H]([C@@H](C)CC)C(=O)N(C)CC(=O)N(C)[C@H]3CCCCCN(C3=O)[C@@H](Cc3ccc(C(F)(F)F)cc3)C(=O)N(C)CC(=O)N[C@@H](CCc3cc(F)c(C(F)(F)F)c(F)c3)C(=O)N2C1` [PP0950] gave an IC50 in assay [1] of 958 nM. Further, the “HRAS /KRAS” value in assay [2] was “B (a compound having 3 or more and less than 10 is denoted as B)”. Also, in assay [3], the “NRAS /KRAS” value was “A (a compound having 10 or more and less than 20 is denoted as A)”.
As to `CCO[C@@H]1C[C@H]2C(=O)NC3(CCC3)C(=O)N(C)[C@@H](C3CCCC3)C(=O)N(CC)[C@H](C(=O)N3CCOCC3)CC(=O)N(C)[C@@H](CCc3ccccc3)C(=O)N[C@@H]([C@@H](C)CC)C(=O)N(C)CC(=O)N(C)[C@H]3CCCCCN(C3=O)[C@@H](Cc3ccc(C(F)(F)F)cc3)C(=O)N(C)CC(=O)N[C@@H](CCc3cc(F)c(C(F)(F)F)c(F)c3)C(=O)N2C1` [PP0953], the concentration for half-maximal inhibition (IC50) in assay [1] was 1610 nM. The “HRAS /KRAS” value in assay [2] is “A (a compound having 10 or more and less than 20 is denoted as A)”. For the same compound, in assay [3], the “NRAS /KRAS” value is “A (a compound having 10 or more and less than 20 is denoted as A)”.
As for `CC[C@H](C)[C@@H]1NC(=O)[C@H](CC(C)C)N(C)C(=O)C[C@@H](C(=O)N2CCOCC2)N(CC)C(=O)[C@H](C2CCCC2)N(C)C(=O)C2(CCC2)NC(=O)[C@@H]2[C@H](O)CCN2C(=O)[C@H](CCc2cc(F)c(C(F)(F)F)c(F)c2)NC(=O)CN(C)C(=O)[C@H](Cc2ccc(C(F)(F)F)cc2)N2CCCCC[C@@H](C2=O)N(C)C(=O)CN(C)C1=O` [PP0955], the IC50 in assay [1] was 6480 nM. Also, the “HRAS /KRAS” value in assay [2] was “A (a compound having 10 or more and less than 20 is denoted as A)”. Further, the “NRAS /KRAS” value in assay [3] was “A (a compound having 10 or more and less than 20 is denoted as A)”.
`CCO[C@@H]1C[C@H]2C(=O)NC3(CC=CC3)C(=O)N(C)[C@@H](C3CCCC3)C(=O)N(CC)[C@H](C(=O)N3CCOCC3)CC(=O)N(C)[C@@H](CC(C)C)C(=O)N[C@@H]([C@@H](C)CC)C(=O)N(C)CC(=O)N(C)[C@H]3CCCCCN(C3=O)[C@@H](Cc3ccc(C(F)(F)F)cc3)C(=O)N(C)CC(=O)N[C@@H](CCc3cc(F)c(C(F)(F)F)c(F)c3)C(=O)N2C1` [PP0956] came in with an IC50 in assay [1] of 690 nM. Besides, the “HRAS /KRAS” value in assay [2] was “A (a compound having 10 or more and less than 20 is denoted as A)”. Besides, the “NRAS /KRAS” value in assay [3] was “A (a compound having 10 or more and less than 20 is denoted as A)”.
In the case of `CC[C@H](C)[C@@H]1NC(=O)[C@H](COC)N(C)C(=O)C[C@@H](C(=O)N2CCOCC2)N(C)C(=O)[C@H](C2CCCC2)N(C)C(=O)C2(CCCC2)NC(=O)[C@@H]2CCCN2C(=O)[C@H](CCc2ccc(C(F)(F)F)c(Cl)c2)NC(=O)CN(C)C(=O)[C@H](Cc2ccc(F)cc2)N2CCCCC[C@@H](C2=O)N(C)C(=O)CN(C)C1=O` [PP0960], the IC50 in assay [1] amounted to 101 nM. Also, in assay [2], the “HRAS /KRAS” value was “B (a compound having 3 or more and less than 10 is denoted as B)”. The “NRAS /KRAS” value in assay [3] was “B (a compound having 3 or more and less than 10 is denoted as B)”.
`CC[C@H](C)[C@@H]1NC(=O)[C@H](CC(C)C)N(C)C(=O)C[C@@H](C(=O)N2CCOCC2)N(C)C(=O)[C@H](C2CCCC2)N(C)C(=O)C2(CCCC2)NC(=O)[C@@H]2CC(F)(F)CN2C(=O)[C@H](CCc2ccc(C(F)(F)F)c(Cl)c2)NC(=O)CN(C)C(=O)[C@H](Cc2ccc(F)cc2)N2CCCCC[C@@H](C2=O)N(C)C(=O)CN(C)C1=O` [PP0966] came in with an IC50 in assay [1] of 34.6 nM. Further, the “HRAS /KRAS” value in assay [2] was “B (a compound having 3 or more and less than 10 is denoted as B)”. Moreover, in assay [3], the “NRAS /KRAS” value is “B (a compound having 3 or more and less than 10 is denoted as B)”.
`CC[C@H](C)[C@@H]1NC(=O)[C@H](CC(C)C)N(C)C(=O)C[C@@H](C(=O)N2CCOCC2)N(C)C(=O)[C@H](C2CCCC2)N(C)C(=O)C2(CCC2)NC(=O)[C@@H]2CCCN2C(=O)[C@H](CCc2ccc(C(F)(F)F)c(Cl)c2)NC(=O)CN(C)C(=O)[C@H](Cc2ccc(F)cc2)N2CCCCC[C@@H](C2=O)N(C)C(=O)CN(C)C1=O` [PP0967] showed an IC50 in assay [1] of 77.7 nM. Moreover, the “HRAS /KRAS” value in assay [2] was “B (a compound having 3 or more and less than 10 is denoted as B)”. The “NRAS /KRAS” value in assay [3] was “B (a compound having 3 or more and less than 10 is denoted as B)”.
In the case of `CC[C@H](C)[C@@H]1NC(=O)[C@H](CC(C)C)N(C)C(=O)C[C@@H](C(=O)N2CCOCC2)N(CC)C(=O)[C@H](C2CCCC2)N(C)C(=O)C2(CCCC2)NC(=O)[C@@H]2CCCN2C(=O)[C@H](CCc2ccc(C(F)(F)F)c(Cl)c2)NC(=O)CN(C)C(=O)[C@H](Cc2ccc(F)cc2)N2CCCCC[C@@H](C2=O)N(C)C(=O)CN(C)C1=O` [PP0970], 340 nM corresponded to half-maximal inhibition in assay [1] (IC50). Besides, the “HRAS /KRAS” value in assay [2] is “B (a compound having 3 or more and less than 10 is denoted as B)”. In assay [3], the “NRAS /KRAS” value was “B (a compound having 3 or more and less than 10 is denoted as B)”.
`CC[C@H](C)[C@@H]1NC(=O)[C@H](CC(C)C)N(C)C(=O)C[C@@H](C(=O)N(C)C)N(C)C(=O)[C@H](C2CCCC2)N(C)C(=O)C2(CCC2)NC(=O)[C@@H]2CC(F)(F)CN2C(=O)[C@H](CCc2ccc(C(F)(F)F)c(Cl)c2)NC(=O)CN(C)C(=O)[C@H](Cc2ccc(F)cc2)N2CCCCC[C@@H](C2=O)N(C)C(=O)CN(C)C1=O` [PP0973]: in assay [1], the concentration for half-maximal inhibition (IC50) was determined as 11.6 nM. The “HRAS /KRAS” value in assay [2] was “B (a compound having 3 or more and less than 10 is denoted as B)”. Also, the “NRAS /KRAS” value in assay [3] is “B (a compound having 3 or more and less than 10 is denoted as B)”.
Compound `CCO[C@@H]1C[C@H]2C(=O)NC3(CCC3)C(=O)N(C)[C@@H](C3CCCC3)C(=O)N(CCC3CCCC3)[C@H](C(=O)N(C)C)CC(=O)N(C)[C@@H](CC(C)C)C(=O)N[C@@H]([C@@H](C)CC)C(=O)N(C)CC(=O)N(C)[C@H]3CCCCCN(C3=O)[C@@H](Cc3ccc(F)cc3)C(=O)N(C)CC(=O)N[C@@H](CCc3ccc(C(F)(F)F)c(Cl)c3)C(=O)N2C1` [PP0976] yielded an IC50 in assay [1] of 1180 nM. For the same compound, the “HRAS /KRAS” value in assay [2] was “B (a compound having 3 or more and less than 10 is denoted as B)”. In addition, the “NRAS /KRAS” value in assay [3] is “B (a compound having 3 or more and less than 10 is denoted as B)”.

For the origin of these results see EP4603105A1, “PHARMACEUTICAL COMPOSITION CONTAINING CYCLIC COMPOUND HAVING SELECTIVE KRAS INHIBITORY EFFECT AGAINST HRAS AND NRAS” (CHUGAI SEIYAKU KABUSHIKI KAISHA, priority 2022, dated 2024).
